According to patent US20220088016A1, “CANCER TREATMENT USING MULTI-TARGETED KINASE INHIBITOR IN COMBINATION OF PROTEIN KINASE BIOMARKERS” (ZHEJIANG CROWNMAB BIOTECH CO. LTD., priority 2019, published 2022):

Assays:
BaF3 hCSF1R cell line = assay: Proliferation of engineered BaF3 hCSF1R cell line (CTG assay); assay type: cell-based; settings: Mus musculus, 72 h; engineered BaF3 hCSF1R; 3 days; CTG; read-out: IC50
Experimental: (§1) Two syngeneic cell lines M-NFS-60 and RAW264.7 and engineered BaF3 hCSFIR cell line were starved and then tested with CBT-102 and other test articles for 3 days in the temperature of 37° C., 5% CO2 and 95% humidity. The cell viability was then detected using CTG assay. The software of GraphPad Prism was used to calculate IC50.
(§2) CSF-1 dependent mouse myeloid M-NFS-60 cells were employed as target cells while a CSF-1 independent cell line Raw 264.7 was used as a negative control. In addition to CBT-102, the study also included 3 CSF-1R inhibitors: GW2580, BLZ945 and Pexidartinib.

ZAP70 = ZAP70 (Homo sapiens, UniProt P43403); assay: Kinase profiling; assay type: binding; settings: read-out: % Ctrl @ 1000 nM
SYK = SYK (Homo sapiens, UniProt P43405); assay: Kinase profiling; assay type: binding; settings: read-out: % Ctrl @ 1000 nM
VRK2 = VRK2 (Homo sapiens, UniProt Q86Y07); assay: Kinase profiling; assay type: binding; settings: read-out: % Ctrl @ 1000 nM
VRK2, sequence (Q86Y07 whole entry): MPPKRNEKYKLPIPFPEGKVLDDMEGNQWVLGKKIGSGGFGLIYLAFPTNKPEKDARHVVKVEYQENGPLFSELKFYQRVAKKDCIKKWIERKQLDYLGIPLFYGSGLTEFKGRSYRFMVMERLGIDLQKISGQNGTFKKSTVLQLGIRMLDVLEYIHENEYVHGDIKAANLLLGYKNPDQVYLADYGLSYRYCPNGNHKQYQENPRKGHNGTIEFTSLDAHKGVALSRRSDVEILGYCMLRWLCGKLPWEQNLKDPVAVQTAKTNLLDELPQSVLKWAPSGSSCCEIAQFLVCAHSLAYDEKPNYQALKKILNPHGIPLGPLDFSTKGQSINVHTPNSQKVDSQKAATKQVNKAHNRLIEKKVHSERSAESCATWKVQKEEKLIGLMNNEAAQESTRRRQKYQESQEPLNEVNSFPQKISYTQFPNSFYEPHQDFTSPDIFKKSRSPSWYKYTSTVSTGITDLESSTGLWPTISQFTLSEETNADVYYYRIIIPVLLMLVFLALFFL

CHEK1 = CHEK1 (Homo sapiens, UniProt O14757); assay: Kinase profiling; assay type: binding; settings: read-out: % Ctrl @ 1000 nM
PIK3C2G = PIK3C2G (Homo sapiens, UniProt O75747); assay: Kinase profiling; assay type: binding; settings: read-out: % Ctrl @ 1000 nM
BRSK1 = BRSK1 (Homo sapiens, UniProt Q8TDC3); assay: Kinase profiling; assay type: binding; settings: read-out: % Ctrl @ 1000 nM
KIT-autoinhibited = KIT-autoinhibited (Homo sapiens, UniProt P10721); assay: Kinase profiling; assay type: binding; settings: read-out: % Ctrl @ 1000 nM
LIMK2 = LIMK2 (Homo sapiens, UniProt P53671); assay: Kinase profiling; assay type: binding; settings: read-out: % Ctrl @ 1000 nM
STK39 = STK39 (Homo sapiens, UniProt Q9UEW8); assay: Kinase profiling; assay type: binding; settings: read-out: % Ctrl @ 1000 nM
STK35 = STK35 (Homo sapiens, UniProt Q8TDR2); assay: Kinase profiling; assay type: binding; settings: read-out: % Ctrl @ 1000 nM
PAK1 = PAK1 (Homo sapiens, UniProt Q13153); assay: Kinase profiling; assay type: binding; settings: read-out: % Ctrl @ 1000 nM
EPHA7 = EPHA7 (Homo sapiens, UniProt Q15375); assay: Kinase profiling; assay type: binding; settings: read-out: % Ctrl @ 1000 nM
EPHA7, sequence (Q15375 28-998): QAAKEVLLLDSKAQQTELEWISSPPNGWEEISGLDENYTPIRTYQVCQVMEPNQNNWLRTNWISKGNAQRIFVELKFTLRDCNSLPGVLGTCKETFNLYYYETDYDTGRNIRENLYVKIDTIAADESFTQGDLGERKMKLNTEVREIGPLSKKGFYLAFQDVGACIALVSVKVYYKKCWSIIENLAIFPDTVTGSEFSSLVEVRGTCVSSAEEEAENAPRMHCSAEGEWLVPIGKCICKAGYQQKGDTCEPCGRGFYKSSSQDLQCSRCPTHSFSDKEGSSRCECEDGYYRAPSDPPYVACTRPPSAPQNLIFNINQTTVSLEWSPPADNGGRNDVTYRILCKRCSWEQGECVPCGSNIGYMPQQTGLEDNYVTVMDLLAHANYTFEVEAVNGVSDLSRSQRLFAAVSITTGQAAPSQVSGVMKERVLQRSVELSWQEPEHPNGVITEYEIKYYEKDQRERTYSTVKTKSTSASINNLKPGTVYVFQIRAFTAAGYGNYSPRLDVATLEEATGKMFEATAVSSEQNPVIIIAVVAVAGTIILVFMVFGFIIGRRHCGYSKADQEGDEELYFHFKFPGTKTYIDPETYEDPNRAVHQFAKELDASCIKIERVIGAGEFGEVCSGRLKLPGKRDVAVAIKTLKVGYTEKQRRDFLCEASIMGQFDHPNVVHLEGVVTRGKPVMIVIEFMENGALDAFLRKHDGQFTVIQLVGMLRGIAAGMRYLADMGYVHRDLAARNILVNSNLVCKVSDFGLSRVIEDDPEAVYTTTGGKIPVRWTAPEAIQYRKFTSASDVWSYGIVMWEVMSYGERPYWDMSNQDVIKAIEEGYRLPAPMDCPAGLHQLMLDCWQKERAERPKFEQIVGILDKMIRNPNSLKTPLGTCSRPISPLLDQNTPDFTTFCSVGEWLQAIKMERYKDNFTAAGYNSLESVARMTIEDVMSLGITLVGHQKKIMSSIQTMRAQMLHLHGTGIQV

ALK = ALK (Homo sapiens, UniProt Q9UM73); assay: Kinase profiling; assay type: binding; settings: read-out: % Ctrl @ 1000 nM
TAK1 = TAK1 (Homo sapiens, UniProt O43318); assay: Kinase profiling; assay type: binding; settings: read-out: % Ctrl @ 1000 nM
KIT (D816H) = KIT (D816H) (Homo sapiens, UniProt P10721, D816H); assay: Kinase profiling; assay type: binding; settings: read-out: % Ctrl @ 1000 nM
RAW264.7 cells = assay: Proliferation of RAW264.7 cells (CTG assay); assay type: cell-based; settings: RAW264.7 (CSF-1 independent, negative control), 3 days
Experimental: as §1, §2

IKK-alpha = IKK-alpha (Homo sapiens, UniProt O15111); assay: Kinase profiling; assay type: binding; settings: read-out: % Ctrl @ 1000 nM
IRAK1 = IRAK1 (Homo sapiens, UniProt P51617); assay: Kinase profiling; assay type: binding; settings: read-out: % Ctrl @ 1000 nM
IRAK1, sequence (P51617 whole entry): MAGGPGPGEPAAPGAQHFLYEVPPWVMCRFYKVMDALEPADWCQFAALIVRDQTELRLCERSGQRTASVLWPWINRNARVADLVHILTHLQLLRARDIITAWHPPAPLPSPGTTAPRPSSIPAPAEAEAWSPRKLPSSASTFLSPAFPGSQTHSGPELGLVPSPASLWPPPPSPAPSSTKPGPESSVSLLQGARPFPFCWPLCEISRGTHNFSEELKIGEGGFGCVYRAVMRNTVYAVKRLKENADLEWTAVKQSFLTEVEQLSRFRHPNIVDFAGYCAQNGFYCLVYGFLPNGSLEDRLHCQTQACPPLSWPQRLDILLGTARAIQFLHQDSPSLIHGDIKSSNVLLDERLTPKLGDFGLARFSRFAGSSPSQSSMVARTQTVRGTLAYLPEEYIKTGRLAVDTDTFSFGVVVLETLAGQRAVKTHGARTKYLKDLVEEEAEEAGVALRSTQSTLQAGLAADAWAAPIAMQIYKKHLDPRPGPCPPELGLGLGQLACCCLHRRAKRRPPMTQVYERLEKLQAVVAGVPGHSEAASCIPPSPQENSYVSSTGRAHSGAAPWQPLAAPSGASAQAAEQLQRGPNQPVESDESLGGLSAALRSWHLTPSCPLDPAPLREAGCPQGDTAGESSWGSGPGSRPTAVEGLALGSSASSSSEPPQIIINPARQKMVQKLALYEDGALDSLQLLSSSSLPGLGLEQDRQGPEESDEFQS

RIOK1 = RIOK1 (Homo sapiens, UniProt Q9BRS2); assay: Kinase profiling; assay type: binding; settings: read-out: % Ctrl @ 1000 nM
CLK1 = CLK1 (Homo sapiens, UniProt P49759); assay: Kinase profiling; assay type: binding; settings: read-out: % Ctrl @ 1000 nM
PAK7 = PAK7 (Homo sapiens, UniProt Q9P286); assay: Kinase profiling; assay type: binding; settings: read-out: % Ctrl @ 1000 nM
[1] = biological target: ABL1 (Y253F)-phosphorylated (Homo sapiens, UniProt P00519, Y253F); assay: Kinase profiling; assay type: binding; settings: read-out: % Ctrl @ 1000 nM
RIPK5 = RIPK5 (Homo sapiens, UniProt Q6XUX3); assay: Kinase profiling; assay type: binding; settings: read-out: % Ctrl @ 1000 nM
RIPK5, sequence (Q6XUX3 whole entry): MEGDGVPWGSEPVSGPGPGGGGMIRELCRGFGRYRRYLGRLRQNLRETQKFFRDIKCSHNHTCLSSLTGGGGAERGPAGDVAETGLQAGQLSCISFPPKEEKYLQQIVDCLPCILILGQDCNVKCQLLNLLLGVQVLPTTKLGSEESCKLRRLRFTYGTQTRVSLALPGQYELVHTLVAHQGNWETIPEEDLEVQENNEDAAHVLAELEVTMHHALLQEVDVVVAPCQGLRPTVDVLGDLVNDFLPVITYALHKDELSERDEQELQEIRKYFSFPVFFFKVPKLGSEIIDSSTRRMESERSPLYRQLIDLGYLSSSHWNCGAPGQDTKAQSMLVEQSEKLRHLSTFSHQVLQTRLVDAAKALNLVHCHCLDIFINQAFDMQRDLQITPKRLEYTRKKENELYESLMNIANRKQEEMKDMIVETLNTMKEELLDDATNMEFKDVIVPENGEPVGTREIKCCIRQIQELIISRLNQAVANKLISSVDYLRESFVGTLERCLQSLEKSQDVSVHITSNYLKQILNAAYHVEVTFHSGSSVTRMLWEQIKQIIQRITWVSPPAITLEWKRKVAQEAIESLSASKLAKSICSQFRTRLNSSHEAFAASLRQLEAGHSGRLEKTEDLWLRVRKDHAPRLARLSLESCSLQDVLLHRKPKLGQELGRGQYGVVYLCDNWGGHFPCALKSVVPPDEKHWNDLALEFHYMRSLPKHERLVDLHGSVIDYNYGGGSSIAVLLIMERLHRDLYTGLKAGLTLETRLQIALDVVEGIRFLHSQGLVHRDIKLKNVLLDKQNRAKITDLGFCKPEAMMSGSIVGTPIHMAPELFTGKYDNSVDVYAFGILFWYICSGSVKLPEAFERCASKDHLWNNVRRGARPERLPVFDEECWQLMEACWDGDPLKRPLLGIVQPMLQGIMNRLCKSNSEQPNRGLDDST

PIKFYVE = PIKFYVE (Homo sapiens, UniProt Q9Y2I7); assay: Kinase profiling; assay type: binding; settings: read-out: % Ctrl @ 1000 nM
WNK4 = WNK4 (Homo sapiens, UniProt Q96J92); assay: Kinase profiling; assay type: binding; settings: read-out: % Ctrl @ 1000 nM
NEK3 = biological target: T1, NEK3 (Homo sapiens, UniProt P51956); assay: Kinase profiling; assay type: binding; settings: read-out: % Ctrl @ 1000 nM
T1 construct: T7 phage fusion (said for most assays); made in house

MARK4 = MARK4 (Homo sapiens, UniProt Q96L34); assay: Kinase profiling; assay type: binding; settings: read-out: % Ctrl @ 1000 nM
PKN2 = PKN2 (Homo sapiens, UniProt Q16513); assay: Kinase profiling; assay type: binding; settings: read-out: % Ctrl @ 1000 nM
PKN2, sequence (Q16513 whole entry): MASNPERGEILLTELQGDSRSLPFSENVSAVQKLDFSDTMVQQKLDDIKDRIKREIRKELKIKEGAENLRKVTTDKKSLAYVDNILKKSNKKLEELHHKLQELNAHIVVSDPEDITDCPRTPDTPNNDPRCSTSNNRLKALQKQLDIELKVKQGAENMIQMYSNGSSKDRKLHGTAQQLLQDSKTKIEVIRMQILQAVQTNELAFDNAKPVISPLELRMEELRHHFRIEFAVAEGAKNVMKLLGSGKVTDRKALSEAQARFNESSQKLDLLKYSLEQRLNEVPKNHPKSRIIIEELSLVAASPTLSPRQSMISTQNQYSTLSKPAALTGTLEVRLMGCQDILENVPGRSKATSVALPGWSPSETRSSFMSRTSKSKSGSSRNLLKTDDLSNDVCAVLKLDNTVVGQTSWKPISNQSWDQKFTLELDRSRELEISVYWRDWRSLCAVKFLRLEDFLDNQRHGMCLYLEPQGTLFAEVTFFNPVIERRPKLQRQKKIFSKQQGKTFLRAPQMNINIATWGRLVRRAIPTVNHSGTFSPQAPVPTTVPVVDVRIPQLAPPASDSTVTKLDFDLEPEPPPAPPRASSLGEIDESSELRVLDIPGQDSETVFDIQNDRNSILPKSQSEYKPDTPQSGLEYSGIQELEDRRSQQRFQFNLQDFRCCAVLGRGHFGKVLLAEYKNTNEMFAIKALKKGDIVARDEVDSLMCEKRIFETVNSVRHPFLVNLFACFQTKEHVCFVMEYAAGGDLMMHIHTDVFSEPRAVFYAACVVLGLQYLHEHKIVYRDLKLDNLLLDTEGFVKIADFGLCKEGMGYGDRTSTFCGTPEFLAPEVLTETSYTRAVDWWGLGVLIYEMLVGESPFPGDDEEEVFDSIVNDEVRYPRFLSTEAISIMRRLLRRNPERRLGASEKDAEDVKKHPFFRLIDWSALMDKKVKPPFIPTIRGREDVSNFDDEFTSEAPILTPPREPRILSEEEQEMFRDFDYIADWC

FRK = FRK (Homo sapiens, UniProt P42685); assay: Kinase profiling; assay type: binding; settings: read-out: % Ctrl @ 1000 nM
ALK (L1196M) = ALK (L1196M) (Homo sapiens, UniProt Q9UM73, L1196M); assay: Kinase profiling; assay type: binding; settings: read-out: % Ctrl @ 1000 nM
FYN = FYN (Homo sapiens, UniProt P06241); assay: Kinase profiling; assay type: binding; settings: read-out: % Ctrl @ 1000 nM
TAOK2 = TAOK2 (Homo sapiens, UniProt Q9UL54); assay: Kinase profiling; assay type: binding; settings: read-out: % Ctrl @ 1000 nM
BIKE = BIKE (Homo sapiens, UniProt Q9NSY1); assay: Kinase profiling; assay type: binding; settings: read-out: % Ctrl @ 1000 nM
CAMK2G = CAMK2G (Homo sapiens, UniProt Q13555); assay: Kinase profiling; assay type: binding; settings: read-out: % Ctrl @ 1000 nM
CAMK2G, sequence (Q13555 whole entry): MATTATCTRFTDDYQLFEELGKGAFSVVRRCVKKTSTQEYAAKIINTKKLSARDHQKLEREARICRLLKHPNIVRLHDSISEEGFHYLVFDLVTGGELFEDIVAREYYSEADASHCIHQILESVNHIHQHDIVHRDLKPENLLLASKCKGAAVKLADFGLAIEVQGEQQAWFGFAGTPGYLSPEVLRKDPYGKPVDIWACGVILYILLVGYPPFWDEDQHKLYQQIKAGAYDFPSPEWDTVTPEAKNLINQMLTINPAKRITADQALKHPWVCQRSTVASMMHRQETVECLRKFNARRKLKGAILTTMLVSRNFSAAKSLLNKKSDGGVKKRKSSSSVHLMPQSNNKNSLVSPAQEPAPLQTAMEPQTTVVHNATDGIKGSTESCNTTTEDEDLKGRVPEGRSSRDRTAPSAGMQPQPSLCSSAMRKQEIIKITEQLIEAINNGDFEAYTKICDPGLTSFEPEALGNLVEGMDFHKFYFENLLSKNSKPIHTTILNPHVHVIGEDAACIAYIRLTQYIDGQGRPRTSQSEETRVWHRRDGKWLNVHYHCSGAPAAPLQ

PRKCH = PRKCH (Homo sapiens, UniProt P24723); assay: Kinase profiling; assay type: binding; settings: read-out: % Ctrl @ 1000 nM

Compound: Cc1cc(Oc2cc(NC(=O)C3CC3)ncn2)ccc1NC(=O)Nc1ccc(Cl)c(C(F)(F)F)c1 [CBT-102]
- IC50 (BaF3 hCSF1R cell line): 588 nM
- remaining activity at 1 µM (ZAP70): 90%
- remaining activity at 1 µM (SYK): 100%
- remaining activity at 1 µM (VRK2): 100%
- remaining activity at 1 µM (CHEK1): 100%
- remaining activity at 1 µM (PIK3C2G): 100%
- remaining activity at 1 µM (BRSK1): 95%
- remaining activity at 1 µM (KIT-autoinhibited): 58%
- remaining activity at 1 µM (LIMK2): 92%
- remaining activity at 1 µM (STK39): 100%
- remaining activity at 1 µM (STK35): 93%
- remaining activity at 1 µM (PAK1): 100%
- remaining activity at 1 µM (EPHA7): 4.1%
- remaining activity at 1 µM (ALK): 100%
- remaining activity at 1 µM (TAK1): 12%
- remaining activity at 1 µM (KIT (D816H)): 37%
- IC50 (RAW264.7 cells; Mus musculus, 72 h): 22.9 µM
- Max inh. (RAW264.7 cells): 95.44%
- remaining activity at 1 µM (IKK-alpha): 93%
- remaining activity at 1 µM (IRAK1): 75%
- remaining activity at 1 µM (RIOK1): 54%
- remaining activity at 1 µM (CLK1): 98%
- remaining activity at 1 µM (PAK7): 91%
- remaining activity at 1 µM [1]: 57%
- remaining activity at 1 µM (RIPK5): 100%
- remaining activity at 1 µM (PIKFYVE): 91%
- remaining activity at 1 µM (WNK4): 89%
- remaining activity at 1 µM (NEK3): 100%
- remaining activity at 1 µM (MARK4): 100%
- remaining activity at 1 µM (PKN2): 100%
- remaining activity at 1 µM (FRK): 6.1%
- remaining activity at 1 µM (ALK (L1196M)): 94%
- remaining activity at 1 µM (FYN): 76%
- remaining activity at 1 µM (TAOK2): 23%
- remaining activity at 1 µM (BIKE): 61%
- remaining activity at 1 µM (CAMK2G): 100%
- remaining activity at 1 µM (PRKCH): 100%
